Experiments:
[1] = tested on: MKN45, IM95, HT-29, A549, HCT116, MDA-MB-231, HepG2 cancer cell lines; test: Cancer cell apoptosis resistance (rapamycin, Annexin V / PI fluorescence); assay type: cell-based, human; settings: 8 hours treatment, then rapamycin 48 hours
Excerpt: (§1) In order to identify whether the combined treatment with an anti-CD300c monoclonal antibody and a chemotherapeutic agent can inhibit cancer cell apoptosis resistance, MKN45 (human gastric cancer cell line), IM95 (human gastric cancer cell line), HT-29 (human colon cancer cell line), A549 (human lung cancer cell line), HCT116 (human colon cancer cell line), MDA-MB-231 (human breast cancer cell line), and HepG2 (human liver cancer cell line) were used. Each type of cancer cells were inoculated at 1×10^4 into a 96-well plate and incubated for 16 hours. The incubated cells were treated with an anti-CD300c monoclonal antibody and a chemotherapeutic agent in combination for 8 hours, and then treated with rapamycin for 48 hours. The degree of survival of cancer cells was identified by fluorescence analysis using Annexin V and propidium iodide (PI).
as §1, with “gemcitabine” for “a chemotherapeutic agent”, “The incubated cells were treated with an anti-CD300c monoclonal antibody and a chemotherapeutic agent in combination for 8 hours, and then treated with rapamycin for 48 hours.” left out
In order to identify whether the combined treatment with an anti-CD300c monoclonal antibody and paclitaxel can inhibit cancer cell apoptosis resistance, MKN45 (human gastric cancer cell line), IM95 (human gastric cancer cell line), HT-29 (human colon cancer cell line), A549 (human lung cancer cell line), HCT116 (human colon cancer cell line), MDA-MB-231 (human breast cancer cell line), and HepG2 (human liver cancer cell line) were used. […] The degree of survival of cancer cells was identified by fluorescence analysis using Annexin V and propidium iodide (PI).

[2] = tested on: A549 (human lung cancer cell line); test: A549 cell proliferation analysis, anti-CD300c antibody with chemotherapeutic agent; assay type: cell-based; settings: 5 days
Method: In order to identify the cancer cell growth inhibitory effect by combined treatment with an anti-CD300c monoclonal antibody and sorafenib, cell proliferation analysis was performed using A549 (human lung cancer cell line). Into a 96-well plate, 20,000 cancer cells were inoculated and treated with 10 ug/mL anti-CD300c monoclonal antibody and 9 μM sorafenib, followed by incubation for 5 days. After the incubation, 10 μL of CCK-8 (DOJINDO) was added to each well, followed by incubation for 4 hours, and the absorbance was measured at 450 nm.
In order to identify the cancer cell growth inhibitory effect by combined treatment with an anti-CD300c monoclonal antibody and gemcitabine, cell proliferation analysis was performed using A549 (human lung cancer cell line). The cells were treated with the anti-CD300c antibody in combination with 1.9 μM gemcitabine for 5 days, and then 10 μL of CCK-8 (DOJINDO) was added to each well, followed by incubation for 4 hours, and the absorbance was measured at 450 nm.
In order to identify the cancer cell growth inhibitory effect by combined treatment with an anti-CD300c monoclonal antibody and paclitaxel, cell proliferation analysis was performed using A549 (human lung cancer cell line). The cells were treated with the anti-CD300c monoclonal antibody in combination with paclitaxel and incubated for 5 days. Thereafter, 10 μL of CCK-8 (DOJINDO) was added to each well, followed by incubation for 4 hours, and the absorbance was measured at 450 nm.

[3] = tested on: MKN45, IM95, HT-29, A549, HCT116, MDA-MB-231, HepG2 cancer cell lines; test: Cancer cell migration/infiltration (scratch wound); assay type: cell-based, human; settings: 24 hours
Excerpt: (§2) In order to identify the cancer cell migration/infiltration inhibitory effect by the combined treatment with an anti-CD300c monoclonal antibody and sorafenib, MKN45 (human gastric cancer cell line), IM95 (human gastric cancer cell line), HT-29 (human colon cancer cell line), A549 (human lung cancer cell line), HCT116 (human colon cancer cell line), MDA-MB-231 (human breast cancer cell line), and HepG2 (human liver cancer cell line) were used. Into a 6-well plate, 1×10^5 cancer cells were inoculated and incubated for 16 hours, and then each well was wounded by scratching with a pipette tip. The detached cells were removed by washing with medium, and then treated with an anti-CD300c monoclonal antibody for 8 hours. Thereafter, observation was performed for 24 hours. On the basis of the area of the wound formed by scratching with the pipette tip, the migration distance of cancer cells was measured, and this distance was calculated as a percentage (%) to identify the degree of migration inhibition.
as §2, with “migration/invasion” for “migration/infiltration”, “gemcitabine, MKN45,” for “sorafenib, MKN45 (human gastric cancer cell line),”, “inhibition. […]” for “inhibition.”

A549 cells = test: A549 growth inhibition by chemotherapeutic agents (concentration selection); assay type: cell-based, human; settings: A549, serial dilutions, 5 days, CCK-8
Method: First, sorafenib was dissolved in dimethyl sulfoxide.
First, gemcitabine was dissolved in dimethyl sulfoxide.
First, paclitaxel was dissolved in […].

[4] = tested on: CT26 cells (mouse colon cancer cell line); test: In vivo anticancer effect in huCD34-NSG mice bearing CT26 cells; set-up: species or system humanized mouse models (huCD34-NSG mice); settings: antibody 25 mg/kg, chemotherapeutic agents 10 mg/kg, i.p. twice a week, four times
Method: In order to identify the anticancer effect under in vivo conditions by the combined treatment with an anti-CD300c monoclonal antibody and a chemotherapeutic agent, human solid tumor xenograft models were prepared by subcutaneous injection of 1×10^6 CT26 cells (mouse colon cancer cell line) to humanized mouse models (huCD34-NSG mice). From 3 days after the administration of cancer cells, the mice were divided into a group administered 25 mg/kg anti-CD300c monoclonal antibody alone, groups administered the chemotherapeutic agents sorafenib, gemcitabine, and paclitaxel at 10 mg/kg for each, groups administered an anti-CD300c monoclonal antibody and chemotherapeutic agents, and a non-administered group. After the intraperitoneal administration with the anti-CD300c monoclonal antibody and each of the chemotherapeutic agents alone or in combination twice a week, a total of four times, the solid tumor tissue was isolated from the mice to measure the size thereof to identify the therapeutic effect of the anti-CD300c monoclonal antibody alone and the effects of the combined administration with existing chemotherapeutic agents.

Compound: Nc1ccn([C@@H]2O[C@H](CO)[C@@H](O)C2(F)F)c(=O)n1 [gemcitabine]
- increase in MFI compared with hIgG1 isotype control group ([1]; gemcitabine experiment): 21%
- inhibition at 1.9 µM ([2]; Homo sapiens, 120 h, A549, gemcitabine 1.9 μM, read-out: cancer cell growth inhibitory rate): 38%
- degree of migration inhibition ([3]; gemcitabine experiment): 28%
- cancer cell growth inhibitory effect (A549 cells): concentration-dependent cancer cell growth inhibitory effect
- tumor inhibition rate [4]: 25%

Compound: CC(=O)O[C@H]1C(=O)[C@@]2(C)[C@H]([C@H](OC(=O)c3ccccc3)[C@]3(O)C[C@H](OC(=O)[C@H](O)[C@@H](NC(=O)c4ccccc4)c4ccccc4)C(C)=C1C3(C)C)[C@]1(OC(C)=O)CO[C@@H]1C[C@@H]2O [paclitaxel]
- increase in MFI compared with hIgG1 isotype control group ([1]; paclitaxel experiment): 19%
- cancer cell growth inhibitory rate ([2]; A549, paclitaxel experiment): 24%
- degree of migration inhibition ([3]; paclitaxel experiment): 20%
- cancer cell growth inhibitory effect (A549 cells): concentration-dependent cancer cell growth inhibitory effect
- tumor inhibition rate [4]: 21%

Compound: CNC(=O)c1cc(Oc2ccc(NC(=O)Nc3ccc(Cl)c(C(F)(F)F)c3)cc2)ccn1 [sorafenib]
- increase in MFI compared with hIgG1 isotype control group ([1]; sorafenib experiment): 21%
- inhibition at 9 µM ([2]; Homo sapiens, 120 h, A549, antibody 10 ug/mL, sorafenib 9 μM, read-out: cancer cell growth inhibitory rate): 45%
- degree of migration inhibition ([3]; sorafenib experiment): 32%
- cancer cell growth inhibitory effect (A549 cells): concentration-dependent cancer cell growth inhibitory effect
- tumor inhibition rate [4]: 22%
